How the values were obtained:
[1] = test system: HIV-1Ba-L infected primary human astrocytes (HA); assay: p24 antigen ELISA in HIV-infected primary human astrocytes (latency breaking and antiviral efficacy); assay type: cell-based; details: tested about 1 to about 10 μM, solution phase
Procedure: FIG. 11 represents an evaluation of the antiviral efficacy of an exemplary embodiment of the drug delivery system in suppressing p24 antigen levels in HIV-infected human astrocytes. The drug delivery system was added on the second day after HIV infection (HIV-1BaL) in equimolar concentration. Supernatants were evaluated on the third, fifth, and seventh day postinfection for p24 levels and were checked for its efficacy, along with its percentage cell viability, using MTT assay. […] Viral p24 protein in the culture supernatant was measured by enzyme-linked immunosorbent assay. Error bars indicate the standard deviation of triplicate data points and are representative of at least three experiments. Dotted lines represent the percentage cell viability; each point represents treatment period. […] NS=non-significant. MTT=3-(4,5-dimethylthiazol-2-yl)-2,5-diphenyltetrazolium bromide.
Latency-breaking and antiviral efficacy of the formulation was determined via quantification of p24 antigen in a primary human astrocytes (HA) infection model (Nair, M. et al., Nat Commun. 2013; 4:1707). […] The sustained-release ability of the finally assembled formulation ([MNP+tenofovir]2+vorinostat) was also evaluated over a treatment period of 5 days in the HA model. […]

human astrocytes (HAs) = test system: human astrocytes (HAs)
Procedure: In vitro cytotoxicity was assessed by MTT cell viability assay, using a CellTiter 96 Aqueous one-solution cell proliferation assay kit (catalog G3580; Promega, USA) (Nair, M. et al., Nat Commun. 2013; 4:1707). HAs were seeded in 96-well tissue plates at a density of 5×10^3 cells per well. […] Finally, approximately 100 μL stop solution (about 20% sodium dodecyl sulfate in about 50% dimethyl formamide) was added into each well, and absorbance was recorded at 550 nm by a microplate reader (Synergy HT; BioTek Instruments, Inc.).

## O=C(CCCCCCC(=O)Nc1ccccc1)NO [vorinostat]
[1]
  vorinostat concentration giving maximum p24 value (latency reversal): 1 µM
Human astrocytes (HAs)
  cytotoxicity of optimized vorinostat dose: nontoxic

Source: patent US20160279069A1, “MATERIALS AND METHODS FOR SUSTAINED RELEASE OF ACTIVE COMPOUNDS” (The Florida International University Board of Trustees, priority 2015, published 2016)
